Measured values from US6518316B1, “Cytokine production and tyrosine kinase inhibitors” (Xenova Limited, priority 1998, dated 2003).
Like-named read-outs stand apart in the source and are kept apart here.

How the values were obtained:
[1] = test system: IL-2 production by Jurkat E6-1 cells; experiment: Cytokine (IL-2) release from PMA pre-treated, anti-CD28 stimulated Jurkat E6-1 cells (DELFIA); assay type: cell-based; conditions: Homo sapiens
Procedure: Jurkat E6-1 cell line was obtained from American Tissue Culture Collection (ATCC, Rockville, USA). The cells were pre-treated with 3 ng/ml phorbol myristate acetate (PMA) for three hours, washed and exposed to dose ranges of the compound to be tested followed by the addition of 5 μg/ml anti-CD28.
After 18 hours incubation at 37° C. and 5% CO2, cell culture supernatants were harvested for determination of IL-2 secretion by Dissociation Enhanced Lanthanide Fluorescence Immuno Assay (DELFIA). The effect of compound on cell cytotoxicity was determined using a redox potential sensitive dye, resazurin. Effects on protein synthesis were determined by investigation of [^3H] leucine uptake.

[2] = test system: IL2 production by T cells; experiment: Cytokine (IL-2) release from purified T cells stimulated with anti-CD3 and anti-CD28 (DELFIA); assay type: cell-based; conditions: Homo sapiens, T-cell
Excerpt: The effect of compound (Ia) on IL-2 release was investigated using a previously described method (Van Cool S. W. et al., (1993) J. Immunol. 150: 3254-3263). T cells were purified by depletion of B cells and monocytes from Buffy coats obtained from normal healthy donors following separation of human peripheral blood mononuclear cells (PBMC) on Lymphoprep. Purified T cells were suspended in RPMI 1640 supplemented with 5% fetal bovine serum (FBS) and aliquoted into 96 well plates coated with anti-CD3. Cells were exposed to dose ranges of the compound to be tested followed by the addition of 5 μg/ml anti-CD28 and incubated for 18 hours at 37° C. and 5% CO2. IL-2 secretion in cell culture supernatants was determined using IL-2 DELFIA.

[3] = test system: T cells; experiment: Toxicity to T cells; assay type: cell-based, human; conditions: 0.06 to 7 μM
[4] = test system: TNF-α secretion by monocytes; experiment: Cytokine (TNF-α) release from LPS stimulated monocytes (DELFIA); assay type: cell-based; conditions: Homo sapiens, Monocyte
Procedure: The effect of compound (Ia) on TNF-α release was investigated using a previously described method (Bakouche, O. et al., (1992), J. Immunol: 14, 84-91). Human monocytes were purified by elutriation from Buffy coats obtained from normal healthy donors after the separation of peripheral blood mononuclear cells (PBMC) on Lymphoprep. The monocytes were suspended in RPMI 1640 with 5% FBS and exposed to dose ranges of the compound to be tested followed by the addition of 1 ng/ml LPS. After incubation for 18 hours at 37° C. and 5% CO2 cell culture supernatants were harvested and stored at −70° C. Effects on TNF-α release were determined using a DELFIA.

[5] = test system: TNF-α; experiment: TNF-α release from PHA and LPS stimulated whole blood (DELFIA); assay type: cell-based; conditions: Homo sapiens
Procedure: (§1) Whole blood samples obtained from up to seven normal healthy volunteers were diluted in an equal volume of RPMI 1640 with 5% FBS and exposed to dose ranges of compound (Ia) followed by the addition of 10 μg/ml phytohaemagglutinin (PHA) and 100 ng/ml LPS. After incubation for 48 hours at 37° C. and 5% CO2 serum samples were harvested for determination of effect on IL-2 and TNF-α secretion using DELFIAs specific for each cytokine respectively.

[6] = test system: IL-2; experiment: IL-2 release from PHA and LPS stimulated whole blood (DELFIA); assay type: cell-based; conditions: Homo sapiens
Procedure: as §1

[7] = target: recombinant abl kinase (Homo sapiens, UniProt P00519); experiment: Inhibition of tyrosine kinase activity (abl kinase, LANCE time resolved fluorescence); assay type: biochemical
recombinant abl kinase, sequence (P00519 whole entry): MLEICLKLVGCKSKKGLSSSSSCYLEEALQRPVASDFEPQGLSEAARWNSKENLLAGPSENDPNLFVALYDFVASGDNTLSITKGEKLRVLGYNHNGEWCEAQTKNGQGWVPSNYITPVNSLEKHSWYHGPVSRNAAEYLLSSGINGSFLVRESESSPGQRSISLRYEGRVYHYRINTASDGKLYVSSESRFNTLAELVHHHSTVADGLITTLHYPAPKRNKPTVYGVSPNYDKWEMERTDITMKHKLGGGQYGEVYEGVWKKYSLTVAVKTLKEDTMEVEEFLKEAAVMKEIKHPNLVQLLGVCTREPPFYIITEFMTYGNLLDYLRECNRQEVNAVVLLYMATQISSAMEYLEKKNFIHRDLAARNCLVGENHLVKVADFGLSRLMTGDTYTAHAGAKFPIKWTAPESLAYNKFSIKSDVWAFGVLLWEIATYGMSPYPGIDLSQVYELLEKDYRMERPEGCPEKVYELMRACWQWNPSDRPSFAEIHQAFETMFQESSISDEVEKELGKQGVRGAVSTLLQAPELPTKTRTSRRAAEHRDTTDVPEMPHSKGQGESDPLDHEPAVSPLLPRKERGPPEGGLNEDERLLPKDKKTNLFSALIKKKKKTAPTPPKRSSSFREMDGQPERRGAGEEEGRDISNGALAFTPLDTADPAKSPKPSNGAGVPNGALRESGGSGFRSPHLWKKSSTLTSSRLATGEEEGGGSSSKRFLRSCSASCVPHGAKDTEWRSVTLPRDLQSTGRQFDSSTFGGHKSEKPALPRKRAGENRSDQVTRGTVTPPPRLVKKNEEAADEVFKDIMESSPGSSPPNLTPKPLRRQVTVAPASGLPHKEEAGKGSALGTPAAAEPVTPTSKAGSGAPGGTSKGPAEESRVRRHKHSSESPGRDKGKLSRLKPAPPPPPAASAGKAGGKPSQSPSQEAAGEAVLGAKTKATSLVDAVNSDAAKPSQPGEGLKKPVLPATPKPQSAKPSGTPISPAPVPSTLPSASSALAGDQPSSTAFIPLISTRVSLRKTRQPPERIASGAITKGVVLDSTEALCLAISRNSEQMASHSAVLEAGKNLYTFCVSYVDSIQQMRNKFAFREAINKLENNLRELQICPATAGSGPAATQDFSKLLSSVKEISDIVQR
Excerpt: Phosphorylation of the peptide substrate was detected using a non-separation time resolved fluorescence assay (LANCE™) using anti-phosphotyrosine conjugated europium and streptavidin conjugated allophycocyanin (APC).

CO[C@@H]1[C@@H]2C(=C3CCC(=O)c4c(O)ccc2c43)c2cccc(O)c2[C@@H]1O (relative stereo) [Compound (Ia)] showed an IC50 ([1]; Jurkat E6.1, PMA pre-treated, anti-CD28, 18 hours, read-out: IC50 for the inhibition of anti-CD28 induced IL-2 production by Jurkat E6-1 cells) of 0.34 µM, an inhibition at 0.056 µM ([1]; Jurkat E6.1, 0.056 μM, read-out: % Inhibition of anti-CD28 induced IL-2 by PMA pre-treated Jurkat E6-1) of 29% and an inhibition at 0.11 µM ([1]; Jurkat E6.1, 0.11 μM, read-out: % Inhibition of anti-CD28 induced IL-2 by PMA pre-treated Jurkat E6-1) of 30.5%. It also gave an inhibition at 0.22 µM ([1]; Jurkat E6.1, 0.22 μM, read-out: % Inhibition of anti-CD28 induced IL-2 by PMA pre-treated Jurkat E6-1) of 36%, an inhibition at 0.44 µM ([1]; Jurkat E6.1, 0.44 μM, read-out: % Inhibition of anti-CD28 induced IL-2 by PMA pre-treated Jurkat E6-1) of 57.8% and an inhibition at 0.89 µM ([1]; Jurkat E6.1, 0.89 μM, read-out: % Inhibition of anti-CD28 induced IL-2 by PMA pre-treated Jurkat E6-1) of 85.4%. It also gave an inhibition at 1.8 µM ([1]; Jurkat E6.1, 1.8 μM, read-out: % Inhibition of anti-CD28 induced IL-2 by PMA pre-treated Jurkat E6-1) of 92.2%, an inhibition at 3.6 µM ([1]; Jurkat E6.1, 3.6 μM, read-out: % Inhibition of anti-CD28 induced IL-2 by PMA pre-treated Jurkat E6-1) of 89.1% and an inhibition at 7.1 µM ([1]; Jurkat E6.1, 7.1 μM, read-out: % Inhibition of anti-CD28 induced IL-2 by PMA pre-treated Jurkat E6-1) of 91.5%. For the same compound, the inhibition at 0.056 µM ([2]; 0.056 µM, read-out: % Inhibition of anti-CD-28 and Anti-CD3 induced IL-2 by T cells) was 29.8%, the inhibition at 0.11 µM ([2]; 0.11 µM, read-out: % Inhibition of anti-CD-28 and Anti-CD3 induced IL-2 by T cells) was 47.3% and the inhibition at 0.22 µM ([2]; 0.22 µM, read-out: % Inhibition of anti-CD-28 and Anti-CD3 induced IL-2 by T cells) was 106%. It also gave an inhibition at 0.44 µM ([2]; 0.44 µM, read-out: % Inhibition of anti-CD-28 and Anti-CD3 induced IL-2 by T cells) of 88.3%, an inhibition at 0.89 µM ([2]; 0.89 µM, read-out: % Inhibition of anti-CD-28 and Anti-CD3 induced IL-2 by T cells) of 98.6% and an inhibition at 1.8 µM ([2]; 1.8 µM, read-out: % Inhibition of anti-CD-28 and Anti-CD3 induced IL-2 by T cells) of 100%. For the same compound, the inhibition at 3.6 µM ([2]; 3.6 µM, read-out: % Inhibition of anti-CD-28 and Anti-CD3 induced IL-2 by T cells) was 100%, the inhibition at 7.1 µM ([2]; 7.1 µM, read-out: % Inhibition of anti-CD-28 and Anti-CD3 induced IL-2 by T cells) was 100% and the IC50 ([2]; 18 hours, read-out: IC50 for inhibition of anti-CD3 and anti-CD28 induced IL2 production by T cells) was 0.12 µM. For the same compound, the “toxicity to T cells” value [3] was “not toxic”, the inhibition at 0.09 µM ([4]; 0.09 µM, read-out: % Inhibition of LPS induced TNF-a by monocytes) was 19% and the inhibition at 0.18 µM ([4]; 0.18 µM, read-out: % Inhibition of LPS induced TNF-a by monocytes) was 32.1%. It also gave an inhibition at 0.36 µM ([4]; 0.36 µM, read-out: % Inhibition of LPS induced TNF-a by monocytes) of 48.1%, an inhibition at 0.7 µM ([4]; 0.7 µM, read-out: % Inhibition of LPS induced TNF-a by monocytes) of 57.6% and an inhibition at 1.4 µM ([4]; 1.4 µM, read-out: % Inhibition of LPS induced TNF-a by monocytes) of 73.2%. It also gave an inhibition at 2.9 µM ([4]; 2.9 µM, read-out: % Inhibition of LPS induced TNF-a by monocytes) of 80%, an inhibition at 5.7 µM ([4]; 5.7 µM, read-out: % Inhibition of LPS induced TNF-a by monocytes) of 89% and an IC50 ([4]; 18 hours, read-out: IC50 for inhibition of LPS induced TNF-α secretion by monocytes) of 0.42 µM. The IC50 ([5]; Donor 1, read-out: IC50 Inhibition of TNF-α) was 14 µM, the IC50 ([5]; Donor 2, read-out: IC50 Inhibition of TNF-α) was 14 µM and the IC50 ([5]; Donor 3, read-out: IC50 Inhibition of TNF-α) was 0.7 µM. The IC50 ([5]; Donor 4, read-out: IC50 Inhibition of TNF-α) was > 2.7 µM, the IC50 ([5]; Donor 5, read-out: IC50 Inhibition of TNF-α) was 5.3 µM and the IC50 ([5]; Donor 6, read-out: IC50 Inhibition of TNF-α) was 3 µM. The IC50 ([6]; Donor 1, read-out: IC50 Inhibition of IL-2) was 0.22 µM, the IC50 ([6]; Donor 2, read-out: IC50 Inhibition of IL-2) was 1.2 µM and the IC50 ([6]; Donor 3, read-out: IC50 Inhibition of IL-2) was 0.43 µM. For the same compound, the IC50 ([6]; Donor 4, read-out: IC50 Inhibition of IL-2) was > 2.7 µM, the IC50 ([6]; Donor 5, read-out: IC50 Inhibition of IL-2) was < 0.4 µM and the IC50 ([6]; Donor 6, read-out: IC50 Inhibition of IL-2) was < 0.4 µM. For the same compound, the “concentrations at which phosphorylation of the peptide by abl kinase was inhibited” value [7] was 0.001 to 5.2 µM, the inhibition at 0.001 µM ([7]; 0.001 μM) was 39% and the inhibition at 0.01 µM ([7]; 0.01 μM) was 56.2%. The inhibition at 0.081 µM ([7]; 0.081 μM) was 86.3%, the inhibition at 0.65 µM ([7]; 0.65 μM) was 98.6% and the inhibition at 5.2 µM ([7]; 5.2 μM) was 100%. The IC50 ([7]; abl kinase, peptide 6-20 p34cdc substrate) was 0.006 µM.
